One assay has as its target T1, hABHD6 (Homo sapiens, UniProt Q9BV23).
T1 construct: expressed in transfected cells; host or cells: HEK293
T1 sequence (Q9BV23 1-337): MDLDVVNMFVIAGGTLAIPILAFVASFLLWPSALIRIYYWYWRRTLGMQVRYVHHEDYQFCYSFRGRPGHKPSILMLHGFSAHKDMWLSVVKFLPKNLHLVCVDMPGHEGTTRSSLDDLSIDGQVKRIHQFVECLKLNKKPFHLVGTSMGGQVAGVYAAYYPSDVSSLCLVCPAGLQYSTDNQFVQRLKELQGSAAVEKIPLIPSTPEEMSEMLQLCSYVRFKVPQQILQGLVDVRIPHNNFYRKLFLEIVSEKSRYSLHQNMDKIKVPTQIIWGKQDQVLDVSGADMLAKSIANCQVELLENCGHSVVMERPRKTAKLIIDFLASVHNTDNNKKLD
The assay can be described thus: Hydrolase activity assay, hABHD6-HEK lysates. The assay is classed as biochemical. To be noted: hABHD6-HEK lysates; read-out: IC50.

A further assay concerns the target T2, hBAT5 (Homo sapiens, UniProt O95870).
T2 sequence (O95870 1-558): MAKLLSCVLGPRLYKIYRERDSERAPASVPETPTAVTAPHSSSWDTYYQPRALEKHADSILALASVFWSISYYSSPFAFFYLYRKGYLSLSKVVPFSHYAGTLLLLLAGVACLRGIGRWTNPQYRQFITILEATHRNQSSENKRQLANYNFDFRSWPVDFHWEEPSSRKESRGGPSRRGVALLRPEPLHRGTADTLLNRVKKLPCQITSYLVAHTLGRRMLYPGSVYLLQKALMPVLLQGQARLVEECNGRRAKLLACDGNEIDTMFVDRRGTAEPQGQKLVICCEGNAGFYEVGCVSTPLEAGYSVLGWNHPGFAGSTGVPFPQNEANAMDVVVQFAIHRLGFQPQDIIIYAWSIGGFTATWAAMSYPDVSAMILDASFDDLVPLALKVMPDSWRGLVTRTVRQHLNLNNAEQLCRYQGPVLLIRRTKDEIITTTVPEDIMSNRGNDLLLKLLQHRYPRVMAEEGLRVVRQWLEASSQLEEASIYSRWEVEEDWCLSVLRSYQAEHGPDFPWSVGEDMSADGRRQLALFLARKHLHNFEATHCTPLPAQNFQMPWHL
The assay can be described thus: Inhibition of 1-LG hydrolysis in hBAT5-HEK293 lysates (fluorescent glycerol assay). Further details: host or cells: HEK293. The assay is classed as biochemical.

The target of a further assay is T3, hABHD12 (Homo sapiens, UniProt Q8N2K0).
T3 construct: expressed in transfected cells; host or cells: HEK293
T3 sequence (Q8N2K0 1-398): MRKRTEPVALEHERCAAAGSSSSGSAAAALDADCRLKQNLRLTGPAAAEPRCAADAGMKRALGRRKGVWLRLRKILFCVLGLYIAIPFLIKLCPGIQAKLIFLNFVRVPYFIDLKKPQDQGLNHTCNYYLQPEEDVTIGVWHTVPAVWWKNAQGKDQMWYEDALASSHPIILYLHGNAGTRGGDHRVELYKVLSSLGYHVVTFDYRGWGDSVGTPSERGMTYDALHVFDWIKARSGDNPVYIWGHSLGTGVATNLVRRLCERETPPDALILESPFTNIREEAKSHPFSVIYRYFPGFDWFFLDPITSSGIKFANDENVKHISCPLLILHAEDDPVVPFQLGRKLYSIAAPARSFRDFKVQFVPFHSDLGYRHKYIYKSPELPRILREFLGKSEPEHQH
As to the kind of experiment: Hydrolase activity assay, hABHD12-HEK lysates. The assay is classed as biochemical.

In a further assay the target is T4, hMAGL (Homo sapiens, UniProt Q99685).
T4 construct: expressed in transfected cells; host or cells: HEK
T4 sequence (Q99685 1-303): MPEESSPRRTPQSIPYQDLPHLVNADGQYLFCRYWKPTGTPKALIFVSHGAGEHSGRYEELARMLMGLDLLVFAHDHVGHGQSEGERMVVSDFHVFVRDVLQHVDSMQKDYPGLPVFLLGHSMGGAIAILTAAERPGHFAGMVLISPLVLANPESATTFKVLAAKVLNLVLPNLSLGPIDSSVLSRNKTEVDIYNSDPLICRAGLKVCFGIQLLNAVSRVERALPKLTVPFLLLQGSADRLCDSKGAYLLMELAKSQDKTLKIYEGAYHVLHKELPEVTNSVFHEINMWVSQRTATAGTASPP
The assay can be described thus: Hydrolase activity assay, hMAGL-HEK lysates. It is filed as biochemical.

Another assay concerns the target T5, hFAAH (Homo sapiens, UniProt O00519).
T5 construct: expressed in transfected cells; host or cells: COS-7
T5 sequence (O00519 1-579): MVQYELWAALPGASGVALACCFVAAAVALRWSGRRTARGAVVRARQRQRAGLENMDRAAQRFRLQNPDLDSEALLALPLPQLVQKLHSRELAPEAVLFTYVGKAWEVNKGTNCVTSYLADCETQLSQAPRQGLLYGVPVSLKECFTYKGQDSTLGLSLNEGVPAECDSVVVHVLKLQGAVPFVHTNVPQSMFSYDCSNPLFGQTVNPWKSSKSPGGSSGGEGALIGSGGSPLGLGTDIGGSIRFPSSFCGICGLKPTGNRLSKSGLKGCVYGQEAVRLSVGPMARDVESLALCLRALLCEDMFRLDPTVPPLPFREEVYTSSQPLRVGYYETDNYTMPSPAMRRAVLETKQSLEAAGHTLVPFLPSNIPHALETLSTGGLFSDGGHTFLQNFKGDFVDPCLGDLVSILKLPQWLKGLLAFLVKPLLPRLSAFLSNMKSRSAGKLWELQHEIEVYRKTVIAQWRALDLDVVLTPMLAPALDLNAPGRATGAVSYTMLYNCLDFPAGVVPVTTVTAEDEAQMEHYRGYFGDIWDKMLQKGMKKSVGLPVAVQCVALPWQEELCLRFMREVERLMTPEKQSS
The assay can be described thus: FAAH activity assay, hFAAH-COS7 membranes (3H-anandamide). The assay is classed as biochemical.

In another assay the target is T6, mBAT5 (Mus musculus, UniProt Q9Z1Q2).
T6 sequence (Q9Z1Q2 1-558): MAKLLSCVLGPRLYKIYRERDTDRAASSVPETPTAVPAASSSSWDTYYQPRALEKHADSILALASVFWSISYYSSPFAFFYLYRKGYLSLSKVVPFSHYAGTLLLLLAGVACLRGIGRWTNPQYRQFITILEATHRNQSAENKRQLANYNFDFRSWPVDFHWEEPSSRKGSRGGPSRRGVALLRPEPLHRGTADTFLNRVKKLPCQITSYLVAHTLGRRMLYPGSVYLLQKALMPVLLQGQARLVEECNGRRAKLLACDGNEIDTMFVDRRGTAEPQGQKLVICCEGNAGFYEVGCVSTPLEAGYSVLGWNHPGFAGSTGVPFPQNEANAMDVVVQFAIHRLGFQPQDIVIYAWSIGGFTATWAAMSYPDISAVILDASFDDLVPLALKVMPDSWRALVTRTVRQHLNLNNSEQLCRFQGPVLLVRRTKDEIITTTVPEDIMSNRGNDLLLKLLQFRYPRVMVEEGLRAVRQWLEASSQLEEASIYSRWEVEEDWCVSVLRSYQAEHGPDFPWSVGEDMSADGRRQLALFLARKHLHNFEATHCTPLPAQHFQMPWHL
The assay can be described thus: Competitive ABPP (TAMRA-FP) with mBAT5-HEK293 lysates. The note with it: 1 h pretreatment.

Setting [1] is: at 10^−5 M, read-out: Remaining activity.

“And” between values parts separate entries of the source, which are not always exact repeats. Equal values may be shown once.

Experimental for mBAT5: Inhibitor dose–response curves and IC50 values derived thereof were calculated from non-linear regressions using GraphPad Prism 5.0 for Windows. The logIC50 values are means ± SEM from three independent experiments. […] The data are derived from three separate ABPP experiments.

In general, IC50 refers to the concentration at which inhibition is half-maximal. What is called remaining activity is the signal under treatment as a percentage of the control signal. With `CC(=C\C(=O)O)/C=C(\C)C[C@H](C)CCCC[C@H]1OC(=O)[C@@H]1CO` [Hymeglusin, hymeglusin], the IC50 on hABHD6 was ~3.2 µM and 3.2 µM. The “hBAT5 inhibitory activity (in words)” value at hBAT5 (1-LG hydrolysis) was “inactive”. Further, the remaining activity at 10 µM stood at 102.6 ± 1% on hBAT5 (at 10^-5 M, 1-LG 25 µM); 103% at hABHD12 (setting [1]); 106% on hMAGL (setting [1]); 79.2% at hFAAH (setting [1]). In addition, the “sensitivity of hABHD12 (in words)” value on hABHD12 is listed as “resistant”. Moreover, the “sensitivity of hMAGL (in words)” value on hMAGL was “resistant”. In addition, the “sensitivity of hFAAH (in words)” value on hFAAH was “resistant”. Moreover, the “inhibition of probe binding to mBAT5 (in words)” value at mBAT5 was “inactive”.
